The source made the active and inactive calls.
Columns and labels:
[1] = target: Nonstructural protein 1 (Influenza A virus, UniProt Q194T2); type: functional, Influenza A virus (A/California/07/2009(H1N1))
[2] = target: Photoreceptor-specific nuclear receptor (Homo sapiens, UniProt Q9Y5X4); type: functional, cell-based;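 note: CHO-S cells with Gal4-NCOR and VP16-NR2E3 two-hybrid luciferase reporter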
[3] = system: INS1; test: beta cell apoptosis inhibitors, cytokine rescue, dose response, luminescence, retest (AID 449756); type: functional, cell-based; details: Rattus norvegicus;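 note: cell death triggered by IL-1 beta plus TNF-alpha plus IFN-gamma mixture; protective hits raise ATP signal compared with cytokine alone wells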
[4] = target: Serine/threonine-protein phosphatase PP1-alpha catalytic subunit (Homo sapiens, UniProt P62136); test: PP1 phosphatase inhibitors, dose response, biochemical, fluorescence (AID 2403);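 note: phosphatase turnover of OMFP into fluorescent 3-O-methylfluorescein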
Serine/threonine-protein phosphatase PP1-alpha catalytic subunit, sequence (P62136 whole entry): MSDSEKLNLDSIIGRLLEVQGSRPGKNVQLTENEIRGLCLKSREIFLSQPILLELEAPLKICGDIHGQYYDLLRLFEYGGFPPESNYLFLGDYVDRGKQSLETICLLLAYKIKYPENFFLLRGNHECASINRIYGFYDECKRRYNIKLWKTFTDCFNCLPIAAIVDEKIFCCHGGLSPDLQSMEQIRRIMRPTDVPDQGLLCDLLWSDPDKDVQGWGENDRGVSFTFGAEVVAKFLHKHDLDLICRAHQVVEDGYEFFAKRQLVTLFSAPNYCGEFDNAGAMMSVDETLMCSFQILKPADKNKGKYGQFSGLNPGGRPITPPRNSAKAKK

[5] = target: Serine/threonine-protein phosphatase (Homo sapiens, UniProt Q9BPW0); test: Counterscreen for inhibitors of PP1: fluorescence-based biochemical high throughput dose response assay to identify inhibitors of Protein Phosphatase 5 (PP5). [Related pubchem assays: 2034 (Summary (PP5 inhibitors)), 1987 (PP5 inhibitors in singlate), 2235 (PP1 inhibitors in singlate)]
Serine/threonine-protein phosphatase, sequence (Q9BPW0 whole entry): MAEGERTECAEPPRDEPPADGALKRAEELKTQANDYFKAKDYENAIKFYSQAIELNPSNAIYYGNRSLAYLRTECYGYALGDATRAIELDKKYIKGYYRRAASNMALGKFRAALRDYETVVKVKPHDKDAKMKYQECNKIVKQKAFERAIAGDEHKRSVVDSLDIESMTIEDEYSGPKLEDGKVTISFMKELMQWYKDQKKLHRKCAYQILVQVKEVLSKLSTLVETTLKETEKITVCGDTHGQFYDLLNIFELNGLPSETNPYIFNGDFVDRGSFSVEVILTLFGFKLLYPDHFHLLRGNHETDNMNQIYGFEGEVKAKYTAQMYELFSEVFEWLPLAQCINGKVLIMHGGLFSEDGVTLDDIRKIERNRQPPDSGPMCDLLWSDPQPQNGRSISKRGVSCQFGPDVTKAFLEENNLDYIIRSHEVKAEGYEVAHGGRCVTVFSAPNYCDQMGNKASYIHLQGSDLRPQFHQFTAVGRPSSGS

[6] = inhibitors of intracellular T. cruzi replication, confirmation, NIH3T3 host cells, beta-gal luminescence (AID 2044); type: functional, cell-based;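 note: intracellular parasites grown in NIH/3T3 mouse fibroblasts as host cells; luminescent beta-galactosidase reporter signal from transgenic T. cruzi replicating inside host cells; inhibitors lower the luminescence signal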
[7] = cytotoxicity toward NIH3T3 fibroblasts, dose response, counter-screen, cell-based, ATP luminescence, mouse fibroblasts (AID 2010); type: functional;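 note: cells exposed to compound for about 90 hours before reading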
[8] = target: T1, RNA-binding protein pos-1 (Caenorhabditis elegans, UniProt G5EF15); test: inhibitors of POS-1/mex-3 RNA binding, dose response, biochemical, fluorescence polarization (AID 1964);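 note: purified POS-1 fused to maltose binding protein made in E. coli; potency of compounds blocking POS-1 binding to fluorescent RNA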
T1 sequence (G5EF15 whole entry): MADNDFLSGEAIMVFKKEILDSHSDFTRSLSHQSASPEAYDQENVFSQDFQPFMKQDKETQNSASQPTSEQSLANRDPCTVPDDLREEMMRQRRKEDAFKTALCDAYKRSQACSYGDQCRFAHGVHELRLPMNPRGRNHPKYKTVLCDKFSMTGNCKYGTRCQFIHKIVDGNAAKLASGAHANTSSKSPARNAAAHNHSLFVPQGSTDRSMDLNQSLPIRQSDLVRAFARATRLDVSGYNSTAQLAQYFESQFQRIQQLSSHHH

[9] = Counterscreen for IDE inhibitors: Luminescence-based cell-based high throughput dose response assay to identify compounds that are cytotoxic to HEK cells. [Related pubchem assays: 434962 (Primary screen (IDE inhibitors in singlicate)), 449730 (Counterscreen (Cytotoxicity in triplicate)), 435028 (Confirmation (IDE inhibitors in triplicate)) …; type: functional; details: HEK293
[10] = target: T2, Insulin-degrading enzyme (Homo sapiens, UniProt P14735); test: Dose Response: Fluorescence polarization-based cell-based high throughput dose response assay for inhibitors of insulin-degrading enzyme (IDE). [Related pubchem assays: 434962 (Primary screen (IDE inhibitors in singlicate)), 449730 (Counterscreen (Cytotoxicity in triplicate)), 435028 (Confirmation (IDE inhibitors in triplicate)), 434984 (Summary …; type: functional
T2 sequence (P14735 whole entry): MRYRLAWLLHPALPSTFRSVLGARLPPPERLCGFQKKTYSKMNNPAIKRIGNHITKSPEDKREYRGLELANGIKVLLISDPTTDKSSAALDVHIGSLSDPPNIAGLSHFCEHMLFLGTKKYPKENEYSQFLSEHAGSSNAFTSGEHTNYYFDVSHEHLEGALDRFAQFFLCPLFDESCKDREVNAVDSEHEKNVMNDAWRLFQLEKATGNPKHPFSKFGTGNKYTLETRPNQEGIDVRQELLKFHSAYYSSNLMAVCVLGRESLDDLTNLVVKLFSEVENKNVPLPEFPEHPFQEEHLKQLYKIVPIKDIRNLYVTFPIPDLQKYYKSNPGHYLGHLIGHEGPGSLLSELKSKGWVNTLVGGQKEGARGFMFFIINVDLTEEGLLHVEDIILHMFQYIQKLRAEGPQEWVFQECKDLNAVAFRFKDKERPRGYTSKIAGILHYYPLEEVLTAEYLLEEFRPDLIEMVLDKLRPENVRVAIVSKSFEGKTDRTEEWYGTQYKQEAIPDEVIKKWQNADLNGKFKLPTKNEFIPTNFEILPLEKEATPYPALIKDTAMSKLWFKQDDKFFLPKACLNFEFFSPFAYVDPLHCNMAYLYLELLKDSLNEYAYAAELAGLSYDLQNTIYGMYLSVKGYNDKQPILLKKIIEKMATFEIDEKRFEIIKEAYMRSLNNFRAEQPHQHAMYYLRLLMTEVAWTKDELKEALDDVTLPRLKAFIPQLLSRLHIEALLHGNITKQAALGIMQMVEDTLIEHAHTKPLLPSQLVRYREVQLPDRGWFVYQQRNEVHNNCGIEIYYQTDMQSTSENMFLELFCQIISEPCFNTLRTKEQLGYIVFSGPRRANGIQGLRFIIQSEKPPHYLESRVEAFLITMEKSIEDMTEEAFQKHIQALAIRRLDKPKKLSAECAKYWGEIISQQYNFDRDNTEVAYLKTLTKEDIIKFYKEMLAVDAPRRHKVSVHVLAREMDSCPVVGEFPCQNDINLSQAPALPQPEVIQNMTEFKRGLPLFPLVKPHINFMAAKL

Nonstructural protein 1, sequence (Q194T2 whole entry, the tested form may be a part): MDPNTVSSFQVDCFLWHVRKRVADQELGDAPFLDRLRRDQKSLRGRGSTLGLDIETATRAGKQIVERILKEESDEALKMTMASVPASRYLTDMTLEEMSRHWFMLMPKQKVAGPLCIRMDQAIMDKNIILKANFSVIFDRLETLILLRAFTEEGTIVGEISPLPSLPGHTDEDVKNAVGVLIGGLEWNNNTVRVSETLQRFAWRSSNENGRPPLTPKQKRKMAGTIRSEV
Photoreceptor-specific nuclear receptor, sequence (Q9Y5X4 whole entry, the tested form may be a part): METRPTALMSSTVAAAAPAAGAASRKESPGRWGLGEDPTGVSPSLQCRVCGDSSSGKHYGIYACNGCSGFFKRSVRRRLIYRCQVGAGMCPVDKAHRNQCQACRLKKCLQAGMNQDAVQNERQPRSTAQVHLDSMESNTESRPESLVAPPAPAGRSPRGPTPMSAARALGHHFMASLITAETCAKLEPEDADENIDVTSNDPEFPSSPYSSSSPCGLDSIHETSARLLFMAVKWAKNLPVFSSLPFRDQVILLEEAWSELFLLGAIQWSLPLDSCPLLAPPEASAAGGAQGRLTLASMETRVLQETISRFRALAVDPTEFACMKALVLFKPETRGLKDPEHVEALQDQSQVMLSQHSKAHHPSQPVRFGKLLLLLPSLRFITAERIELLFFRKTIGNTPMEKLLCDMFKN

Structure (SMILES): Nc1nc(-c2ccccn2)nc(N)c1Cc1c(F)cccc1Cl
- IC50 [1]: 6.42 µM (active)
- IC50 [2]: 4.08 µM (active)
- AC50 [3]: 5.84 µM (active)
- IC50 [4]: 7.4 µM (active)
- IC50 [5]: 62.2 µM (not active)
- EC50 [6]: 1.18 µM (active)
- EC50 [7]: 5.25 µM (active)

Structure (SMILES): COc1ccc(/N=C(\C)c2sc3ccccc3c2O)cc1
- EC50 [8]: > 300 µM (not active)
- IC50 [9]: > 55.7 µM (not active)
- IC50 [10]: > 18.7 µM (not active)

Reference: ChEMBL document CHEMBL1201862, “PubChem BioAssay data set” (2004)
